Holding throughout (assay type): cell-based, human
Test [1] has as its system C3a and C5a. Nature of the test: immunofluorescence analysis of C3a and C5a expression in RPE cells. To be noted: siRNA 24 hours, Bay 1170-82 10 μM, control DMSO / control siRNA. Here is the method: In order to confirm the inhibitory effect of complement activity in the case of treatment with an inhibitor of cathepsin S expression or activity, RPE cells were treated with cathepsin S siRNA (CTSS siRNA, CTSSiRNA) and then the effect of inhibiting complement activity was analyzed. At this time, NF-κB inhibitor were treated as a comparison group. Specifically, RPE cells were treated with control siRNA or CTSS siRNA for 24 hours in the presence or absence of NF-κB inhibitor Bay 1170-82 (10 μM), respectively. After that, immunofluorescence analysis was performed for the expression of C3a and C5a in RPE cells. Experimental methods and conditions were applied in the same manner as in Example 3.

The test system of test [2] is ARPE-19 cells. Briefly: MTT viability of RPE cells according to H2O2 treatment. To be noted: H2O2 6.25-100 μM, 48 hours, compared to the control. The protocol: In order to confirm the decrease in viability of retinal pigment epithelium cells (RPE cells, hereinafter referred to as RPE cells) according to H2O2 treatment, MTT analysis was performed, and the viability and iNOS expression of RPE cells according to H2O2 treatment were confirmed.
First, a human retinal-pigmented epithelial cell line (hereinafter referred to as ARPE-19 cells (ATCC, Manassas, VA, USA)) was used and inoculated into 96-well plates and cultured for 24 hours. Thereafter, the cells were treated with 6.25 μM 12.5 μM, 25 μM, 50 μM, and 100 μM H2O2 for 48 hours, a 3-(4,5-dimethylthiazol-2-yl)-2,5-diphenyl-tetrazolium bromide (MTT) solution was added to the medium, and the cells were cultured at 37° C. for 4 hours. The MTT-comprising medium was removed and the cells were lysed in 50 μl of DMSO. An optical density at 540 nm was confirmed using a microplate spectrophotometer (SpectraMax; Molecular Devices, Sunnyvale, CA, USA), and cell viability was determined by repeating each experiment three times to calculate an average value.

The subject of test [3] is iNOS. Nature of the test: iNOS expression in RPE cells according to H2O2 treatment (RT-PCR, western blot). The protocol: In addition, the expression level of iNOS expressed in RPE cells according to H2O2 treatment was analyzed. Specifically, after RPE cells were treated with 10 μM, 50 μM, and 100 μM H2O2, relative iNOS mRNA expression levels were confirmed, and western blot experiments were performed. Total RNA was prepared using a Ribospin™ II kit from GeneAll Biotechnology (Seoul, South Korea) according to the manufacturer's recommendations. Total RNA (1 μg) was reverse transcribed into first-strand cDNA using an iScript™ cDNA Synthesis kit (Bio-Rad Laboratories, Inc., California, USA) according to the manufacturer's instructions, real-time reverse transcription-polymerase chain reaction (RT-PCR) was performed using a Thermal Cycler CFX96™ Real-Time PCR System (Bio-Rad Laboratories, USA), and each experiment was repeated three times to derive the results. RPE cells were washed with ice-cold PBS and then extracted with a protein lysis buffer (Intron Biotechnology, Seoul, South Korea). Protein samples of cell lysates were mixed with an equal volume of 2×SDS sample buffer, denatured by heating for 5 minutes and then separated on a 10% SDS-PAGE gel. After electrophoresis, proteins were transferred to a polyvinylidene difluoride membrane, and the membrane was blocked and washed using 5% BSA for 40 minutes. […]
On the technique in general: In western blotting, separated proteins are transferred to a membrane and probed.

Test [4] concerns cathepsin S (CTSS). Nature of the test: cathepsin S expression in RPE cells under oxidative stress (mRNA, western blot). Here is the method:
To confirm the expression of cathepsin S (CTSS) in RPE cells under oxidative stress conditions, RPE cells were treated with H2O2 and the expression of cathepsin S (CTSS) was determined. Specifically, the cells was treated with 10 μM and 50 μM H2O2, cathepsin S mRNA expression level analysis and western blot experiments were performed in order to confirm the expression of cathepsin S, and the same experimental method and conditions as in Example 1 were applied, except that cathepsin S-specific antibodies were used.

For test [5], the system named is cathepsin S (CTSS). Briefly: immunofluorescence analysis of cathepsin S in RPE cells. To be noted: H2O2 50 μM, 48 hours. The protocol: Immunofluorescence analysis was performed to confirm the suppression of cathepsin S in cathepsin S knockdown RPE cells of Example 3-1. Specifically, after cells prepared in the same manner as in the mRNA expression level analysis were washed twice with sterile PBS and fixed with 4% paraformaldehyde at room temperature for 30 minutes, the fixation was stopped by washing the cells three times with PBS. The cells were permeabilized with PBS comprising 0.01% Triton X-100 […]. After blocking for 1 hour, the insert membrane was removed using a scalpel and placed on Parafilm prior to being incubated with a primary antibody (depending on the protein of interest). All primary antibodies were diluted 1:50 in 5% BSA and PBS and used, and cultured at 4° C. overnight. Thereafter, the cells were washed three times with PBS and a secondary FITC- or TRITC-conjugated antibody was diluted 1:50 and applied at room temperature for 1 hour. After 1 mg/ml DAPI was added 10 minutes before removing a secondary antibody to stain the nuclei, the cells were coated with a mounting medium and a glass coverslip was placed on top. The membrane/coverslip was fixed to the glass slide using a mounting medium, and cells were observed under a fluorescence microscope (Leica DFC7000T).

Test [6] deals with PPARγ and VEGFA/AKT. Nature of the test: western blot of angiogenic factors in RPE cells. To be noted: RPE cells treated with H2O2. The source says:
(§1) In the case of treatment with an inhibitor of cathepsin S expression or activity, it was confirmed whether angiogenesis in RPE cells induced by oxidative stress was reduced. Specifically, the expression levels of PPARγ and VEGFA/AKT, which play key roles in neovascularization, differentiation, migration, and proliferation, were confirmed through western blotting experiments, and the experimental methods and conditions were applied in the same manner as in Example 2. In addition, to confirm the presence or absence of cell tube formation, HUVECs (1×10^5) were treated on a Matrigel-coated 96-well-plate with reduced growth factors, and then the cells were treated with a conditioned medium (CM) for 2 hours by treating RPE cells with CTSS siRNA and H2O2 at 37° C. for 48 hours, and images were analyzed with an inverted fluorescence microscope.

For test [7], the system named is HUVECs. Nature of the test: tube formation of HUVECs treated with conditioned medium of RPE cells. The settings on record: conditioned medium of H2O2-treated control RPE cells, 2 hours.
Excerpt: as §1

In the case of `Cc1ccc(S(=O)(=O)/C=C/C#N)cc1` [Bay 1170-82], in test [1], the “expression of C3a (immunofluorescence)” value was “suppressed” and the “expression of C5a (immunofluorescence)” value was “suppressed”.

As for `OO` [H2O2], the “cell viability (MTT)” value in test [2] is reported as “decrease in cell viability”. For the same compound, in test [3] (RPE cells, 50 μM and 100 μM H2O2), the “relative iNOS mRNA levels” value is listed as “increased”. For the same compound, the “iNOS protein (western blot)” value in test [3] (RPE cells, 10, 50, 100 μM H2O2) is on record as “increased in a H2O2 concentration-dependent manner”. The “cathepsin S protein band (western blot)” value in test [4] (10 μM and 50 μM H2O2) is “appeared thick and dark”. Also, the “relative mRNA level of cathepsin S” value in test [4] (10 μM and 50 μM H2O2, vs control) is “higher than that of the control”. Moreover, the “cathepsin S expression (red fluorescence)” value in test [5] is “significantly increased”. For the same compound, in test [6], the “expression level of PPARγ (western blot)” value is “increased” and the “expression level of VEGFA/AKT (p-AKT) (western blot)” value was “increased”. Moreover, in test [7], the tube formation entry is “marked increase in tube formation”.

Source of the values: patent US20240035033A1, “PREVENTION AND TREATMENT OF AGE-RELATED MACULAR DEGENERATION THROUGH SUPPRESSION OF CATHEPSIN S EXPRESSION” (CHUNG-ANG UNIVERSITY INDUSTRY-ACADEMIC COOPERATION …, priority 2022, published 2024).
